Like-named read-outs stand apart in the source and are kept apart here.
What was measured:
Nos2 = assay: qRT-PCR differential gene expression, Nos2; type: cell-based, murine; settings: 10 μM, 12 h, LPS-stimulated RAW 264.7; relative to LPS-stimulated solvent control
Protocol: (§1) RAW 264.7 cells (passage number ≤ 6) were seeded in a 6-well microplate at a density of 2.5 × 10^5 cells/well and incubated for 24 h at 37 °C with 5% CO2 prior to treatment. Cells were treated with 10 μM compound or 0.5% DMSO in duplicate and incubated for 1 h before stimulation with LPS (1 µg/mL). At 12 h post-treatment, total RNA was extracted with Qiagen RNeasy extraction kit (Germantown, MD, USA) according to manufacturer’s protocol. RNA was reverse-transcribed from 2 µg of total RNA using SuperScript IV Reverse Transcriptase (Invitrogen, Waltham, MA, USA), 1 mM dNTP, and Oligo (dT)12–18 primer (0.5 µg/mL, Invitrogen). Quantitative real time-PCR (qRT-PCR) was performed in ABI 7500 Fast Real-Time PCR (Applied Biosystems, Bedford, MA, USA). qRT-PCR was performed as a 25 µL total reaction mixture, composed of 1X TaqMan® universal master mix, 1X TaqMan® gene expression assay mix, 2 µL of cDNA, and 9.25 µL RNase-free sterile water. Analyses were carried out using probes for Il1b (Assay ID Mm00434228_m1), Nos2 (Mm00440502_m1), and Nqo1 (Mm01253561_m1). The thermocycler program was designed as follows: 50 °C for 2 min, 95 °C for 10 min, and 40 cycles of 95 °C for 15 s and 60 °C for 1 min. Mouse Gapdh (Mm99999915_g1) was used as the internal control for normalization. The measurement of gene expression is reported in cycles to threshold (Ct) PCR, whose value represents the cycle number at which the amount of amplified DNA of the target gene reached the threshold level. The relative gene expression was analyzed using the comparative Ct method to compare the Ct value of the target gene to the internal control in a treatment sample. Statistical analysis on the relative gene expression was carried out using one-way ANOVA and Tukey’s multiple comparison test with p-value < 0.05. Analysis was done in two independent experiments with three technical replicates each.

[1] = tested on: Nrf2-luciferase reporter MCF7 stable cells; assay: Cytotoxicity counter-screen on Nrf2-luciferase reporter MCF7 cells; type: cell-based
Protocol: Absorbance was measured at 570 nm. […] For the cytotoxicity counter-screen, Nrf2-luciferase reporter MCF7 stable cells were grown, seeded, and treated identically with the reporter assay. Cell viability was done using the tetrazolium reagent, as indicated previously.

[2] = tested on: Nrf2-luciferase reporter MCF7 stable cells; assay: Nrf2-ARE activation luciferase reporter assay; type: cell-based
Protocol: Nrf2-luciferase reporter MCF7 stable cells (Signosis, Inc.) were grown in high glucose DMEM (Hyclone, Logan, UT, USA) supplemented with 10% FBS, 1% antibiotic-antimycotic solution, and 75 µg/mL geneticin. A 100-µL cell suspension was plated with a seeding density of 20,000 cells/well. The plate was incubated at 37 °C with 5% CO2 for 24 h prior to treatment. Cells were treated with compounds at half-log dilution, ranging from 0.032–100 µM (0.5% DMSO). DMSO (0.5%) and tBHQ (0.01–32 μM) served as solvent and positive controls, respectively. After 8-, 12-, and 16-h incubation, the medium was removed, and cells were washed with 100 µL 1X PBS. Lysis buffer (Signosis, Inc.) was added, and the plate was further incubated for 15 min at room temperature. A 100-µL firefly luciferase substrate (Signosis, Inc.) was added, and luminescence was measured. Nrf2 fold activation of treated cells was assessed relative to the solvent control. The assay was done in two independent experiments in triplicate.

Nqo1 = assay: qRT-PCR differential gene expression, Nqo1; type: cell-based, murine; settings: 10 μM, 12 h, LPS-stimulated RAW 264.7
Protocol: as §1

Il1b = assay: qRT-PCR differential gene expression, Il1b; type: cell-based, murine; settings: 10 μM, 12 h, LPS-stimulated RAW 264.7; relative to LPS-stimulated solvent control
Protocol: as §1

[3] = tested on: NO production in LPS-stimulated RAW 264.7 murine macrophage cells; assay: Nitric oxide production assay (Griess) in LPS-stimulated RAW 264.7 cells; type: cell-based
Protocol: The anti-inflammatory activity of the extracts and compounds was assessed according to the procedure of Ratnayake et al. (2013). RAW 264.7 murine macrophage cells (passage number ≤ 6) were grown in Dulbecco’s Modified Eagle’s Medium (DMEM) supplemented with 10% fetal bovine serum (FBS) and 1% antibiotic-antimycotic solution. At 24 h post-incubation, the cells (200,000 cells/mL) were treated with extracts (50 and 5 µg/mL) or pure compounds in triplicate. For pure compounds, a 20 mM stock was prepared in DMSO and serially diluted to generate eight concentrations ranging from 0.032–100 µM. DMSO (0.5%) served as the solvent control. Dexamethasone (50 µM) and tBHQ (10 µM) served as positive controls. LPS (1 µg/mL) was added to each well after 1 h of extract or compound pre-treatment. A reverse treatment was also done for compounds, where cells were first pre-treated with LPS (1 µg/mL) prior to the addition of the compound.
After 24 h of incubation, NO production was assessed by measuring the nitrite concentration using the Griess Reagent System (Promega, Madison, WI, USA) according to the manufacturer’s protocol. Results were presented as %NO production relative to LPS-stimulated solvent control.

[4] = tested on: LPS-stimulated RAW 264.7 murine macrophage cells; assay: Tetrazolium-based (MTT) cell viability assay; settings: for CC50: Mus musculus, RAW264.7, 24 h; for decrease in cytotoxicity relative to 1: from cell viability IC50, compound pre-treatment + LPS; for IC50: read-out: Cell Viability (IC50)
Protocol: MTT solution (5 mg/mL in PBS, 15 µL) was added to the original assay plate, and the reaction was terminated with the addition of acidified sodium dodecyl sulfate (SDS) solution after 2 h. Absorbance was measured at 570 nm. […] The concentration-dependent response curve for cell viability of the pure compounds was generated, and the IC50 was determined using a non-linear regression, inhibitor vs. normalized response—variable slope analysis. Samples were tested in at least one independent experiment performed in triplicate.
Statistical comparison of the cell viability IC50 of 2–6 relative to xestoquinone (1) was analyzed using one-way ANOVA and Tukey’s post-hoc test at p-value < 0.05. Comparison of the IC50 values from NO production and cytotoxicity assessment for each of the compounds were analyzed using a one-tailed unpaired t-test at p-value < 0.05.

[5] = Direct antioxidant activity, DPPH scavenging assay; settings: 30 min, room temperature
Protocol: The direct antioxidant activity of 1–6 was determined using the 2,2-diphenyl-1-picrylhydrazyl (DPPH) scavenging method. Half-log dilution of 1–6 (0.032 to 100 µM) was prepared in MeOH. Then, 20 μL of 1 mM DPPH was dispensed into each well and incubated for 30 min at room temperature with shaking. Absorbance was measured at 517 nm, and results are presented as % radical scavenging activity (% RSA) relative to the solvent control. Ascorbic acid (0.032–100 µM) and tBHQ (0.032–100 µM) served as positive controls, while 0.5% DMSO served as solvent control. The analysis was done in triplicate.

[6] = Mus musculus, RAW264.7, 24 h, Compound pre-treatment 1 h + LPS (1 µg/mL), 24 h, mean ± SD of two independent experiments, read-out: NO Production (IC50)
[7] = Mus musculus, RAW264.7, 24 h, LPS pre-treatment 1 h + compound, single experiment in triplicate, read-out: NO Production (IC50)
[8] = read-out: Cell Viability (IC50), Compound pre-treatment 1 h + LPS, 24 h, mean ± SD of two independent experiments
[9] = read-out: Cell Viability (IC50), LPS pre-treatment 1 h + compound, single experiment in triplicate
[10] = both timepoints (12 h and 16 h)
[11] = Compound pre-treatment 1 h + LPS (1 µg/mL), 24 h, mean ± SD of two independent experiments, read-out: NO Production (IC50)
[12] = LPS pre-treatment 1 h + compound, single experiment in triplicate, read-out: NO Production (IC50)
[13] = Compound pre-treatment 1 h + LPS, 24 h, mean ± SD of two independent experiments
[14] = LPS pre-treatment 1 h + compound, single experiment in triplicate

**Q.** What does the source list for `C[C@@]12CCCc3coc(c31)C(=O)c1cc3c(cc12)C(=O)C=CC3=O` [Compound 1, xestoquinone]?
**A.** downregulation of LPS-induced Nos2 expression (Nos2): 2.7 fold; cytotoxicity to Nrf2-MCF7 cells ([1]; 12 h, 1.0 and 3.2 μM): no cytotoxicity; cytotoxicity to Nrf2-MCF7 cells ([1]; 16 h, 1.0 and 3.2 μM): no significant cytotoxic effects; Nrf2 activation ([2]; 12 h, 1.0 μM, relative to solvent control): at least three; Nrf2 activation ([2]; 12 h, 3.2 μM): at least three; Nrf2 activation ([2]; 12 h posttreatment): modest increase in Nrf2 activation; Nrf2 activation ([2]; 16 h, 1.0 μM): four; Nrf2 activity in reporter assay ([2]; 16 h incubation): significant activation; upregulation in Nqo1 expression (Nqo1): did not change the Nqo1 expression; downregulation of Il1b expression (Il1b): 2.6 fold; IC50 [3, 6]: 1.2 ± 0.1 µM; IC50 [3, 7]: 0.99 µM; CC50 [4, 8]: 6 ± 3.2 µM; CC50 [4, 9]: 4.9 µM

**Q.** Which “downregulation of LPS-induced Nos2 expression” value (Nos2) does the source give for `C[C@@]12CCCc3coc(c31)C(=O)c1cc3c(cc12)C(=O)C1=C(NCCS1(=O)=O)C3=O` [Compound 2, adociaquinone B] here?
**A.** unaffected

**Q.** What about the Nrf2 activation [2, 10] of the same compound?
**A.** Nrf2 activation was not observed

**Q.** What about the “upregulation in Nqo1 expression” value (Nqo1) of the same compound?
**A.** did not change the Nqo1 expression

**Q.** And the “downregulation of Il1b expression” value (Il1b)?
**A.** 12.1 fold

**Q.** And the IC50 ([3]; Mus musculus, RAW264.7, 24 h, read-out: NO Production (IC50), Compound pre-treatment 1 h + LPS (1 µg/mL), 24 h, mean ± SD of two independent experiments)?
**A.** 1.9 ± 0.72 µM

**Q.** What about the IC50 ([3]; Mus musculus, RAW264.7, 24 h, read-out: NO Production (IC50), LPS pre-treatment 1 h + compound, single experiment in triplicate) of the same compound?
**A.** 1.5 µM

**Q.** And the CC50 [4, 8]?
**A.** 5.3 to 6.4 µM

**Q.** And the CC50 [4, 9]?
**A.** 4.2 µM

**Q.** With `CC12CCCc3coc(c31)C(=O)c1cc3c(cc12)C(=O)C=C(CO)C3=O` (stereo not shown) [Compound 4, 14-hydroxymethylxestoquinone] as the compound, how does the Nrf2 activation ([2]; 12 h posttreatment) read?
**A.** modest increase in Nrf2 activation

**Q.** And the IC50 [3, 6]?
**A.** 2.5 ± 0.39 µM

**Q.** What about the IC50 [3, 7] of the same compound?
**A.** 1.8 µM

**Q.** What about the CC50 [4, 8] of the same compound?
**A.** 16 ± 0.68 µM

**Q.** And the CC50 [4, 9]?
**A.** 27 µM

**Q.** And the “decrease in cytotoxicity relative to 1” value [4]?
**A.** more than two

**Q.** What does the source list for `CC12CCCc3coc(c31)C(=O)c1cc3c(cc12)C(=O)C(CO)=CC3=O` (stereo not shown) [Compound 5, 15-hydroxymethylxestoquinone]?
**A.** downregulation of LPS-induced Nos2 expression (Nos2): 2.6 fold; upregulation in Nqo1 expression (Nqo1): 3.0 fold; downregulation of Il1b expression (Il1b): 2.1 fold; IC50 [3, 6]: 4 ± 2.4 µM; IC50 [3, 7]: 4.7 µM; CC50 [4, 8]: > 32 µM; CC50 [4, 9]: > 32 µM; decrease in cytotoxicity relative to 1 [4]: five

**Q.** With `O=C1O[C@H]([C@@H](O)CO)C(O)=C1O` [ascorbic acid] as the compound, how does the IC50 [5] read?
**A.** 13 µM

**Q.** Which “reduction of NO production” value ([3]; 50 µM) does the source give for `C[C@@H]1C[C@H]2[C@@H]3CCC4=CC(=O)C=C[C@]4(C)[C@@]3(F)[C@@H](O)C[C@]2(C)[C@@]1(O)C(=O)CO` [dexamethasone, reference compound] here?
**A.** 50%

**Q.** And the IC50 [3, 6]?
**A.** > 0.032 µM

**Q.** And the IC50 [3, 7]?
**A.** > 0.032 µM

**Q.** And the CC50 [4, 8]?
**A.** > 100 µM

**Q.** What about the CC50 [4, 9] of the same compound?
**A.** > 100 µM

**Q.** What does the source list for `CC(C)(C)c1cc(O)ccc1O` [tBHQ, reference compound]?
**A.** downregulation of LPS-induced Nos2 expression (Nos2): 3.8 fold; cytotoxicity to Nrf2-MCF7 cells ([1]; 12 h, 10 and 32 μM): no observable cytotoxicity; cytotoxicity to Nrf2-MCF7 cells ([1]; 16 h, 10 and 32 μM): non-cytotoxic; Nrf2 activation ([2]; 12 h, 32 μM): 18 fold; Nrf2 activation ([2]; 16 h, 10 μM): four; Nrf2 activation ([2]; 16 h, 32 μM): 19 fold; upregulation in Nqo1 expression (Nqo1): 6.3 fold; downregulation of Il1b expression (Il1b): six; reduction of NO production ([3]; 10 µM): 90%; IC50 [3, 11]: 1.2 ± 0.23 µM; IC50 [3, 12]: 0.42 µM; IC50 [5]: 11 µM; IC50 [4, 13]: > 100 µM; IC50 [4, 14]: > 100 µM

**Q.** Which Nrf2 activation [2, 10] does the source give for adociaquinone A [Compound 3] here?
**A.** Nrf2 activation was not observed

**Q.** And the IC50 [3, 11]?
**A.** 2.1 ± 0.17 µM

**Q.** What about the IC50 [3, 12] of the same compound?
**A.** 1.5 µM

**Q.** And the IC50 [4, 13]?
**A.** 6.4 ± 1.2 µM

**Q.** What about the IC50 [4, 14] of the same compound?
**A.** 5.9 µM

— PMC9028180, “Anti-Inflammatory Activity of Monosubstituted Xestoquinone Analogues from the Marine Sponge Neopetrosia compacta” (Antioxidants, 2022)
